From ChEMBL document CHEMBL5584285, “Advancements in Protein Degradation for Cancer Therapy” (ACS Med Chem Lett, 2024) come the findings set out here.

One may read the IC50 as the concentration that gives 50% inhibition. A low value points to greater potency. Usually DC50 stands for the concentration giving 50% degradation. A lower DC50 goes with a more potent degrader.

A short description of assay [1]: Binding affinity to 6His-tagged KRAS G12V mutant /GST-tagged RAF1 (unknown origin) incubated for 60 mins by fluorescence based microplate reader assay. The arrangement: species or system Homo sapiens.
Another assay has as its target GTPase KRas (Homo sapiens, UniProt P01116, G12V). The assay is described as follows: Induction of KRAS G12V mutant degradation in human SW1990 cells incubated for 24 hrs. Format: cell-based.

Sequence of GTPase KRas (P01116 whole entry G12V): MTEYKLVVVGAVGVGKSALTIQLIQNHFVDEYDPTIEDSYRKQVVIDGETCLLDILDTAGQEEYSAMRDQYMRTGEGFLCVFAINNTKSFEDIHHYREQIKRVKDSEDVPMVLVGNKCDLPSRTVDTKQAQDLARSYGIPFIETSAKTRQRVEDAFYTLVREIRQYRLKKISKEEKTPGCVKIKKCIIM

The molecule `CCc1c(F)ccc2cc(O)cc(-c3ncc4c(N5CCC[C@@](C)(O)C5)nc(OCC5(CN6CCC(OC7CCN(C8CCN(c9ccc%10c(c9)CN(C9CCC(=O)NC9=O)C%10=O)CC8)CC7)CC6)CC5)nc4c3F)c12` (some centres not stated) registered an IC50 in assay [1] of no more than 20 nM. In addition, the half-maximal degradation concentration (DC50) on GTPase KRas was no more than 1 nM.

In the case of `CCc1cccc2cc(O)cc(-c3ncc4c(N5CCC[C@@](C)(O)C5)nc(OCC5(CN6CCC(OC7CCN(c8ccc9c(c8)CN(C8CCC(=O)NC8=O)C9=O)CC7)CC6)CC5)nc4c3F)c12` (some centres not stated), the half-inhibitory concentration (IC50) in assay [1] stood at 20 nM. For the same molecule, the 50% degradation concentration (DC50) at GTPase KRas was no more than 1 nM.

Consider `CCc1c(F)ccc2cc(O)cc(-c3ncc4c(N5CCC[C@@](C)(O)C5)nc(OCC5(CN6CCC7(CC6)CC(N6CCN(c8ccc9c(c8)CN([C@H]8CCC(=O)NC8=O)C9=O)CC6)C7)CC5)nc4c3F)c12`, for which the 50% inhibitory concentration (IC50) in assay [1] is no more than 20 nM. The same molecule yielded a DC50 on GTPase KRas of no more than 1 nM.

In assay [1], `CCc1c(F)ccc2cc(O)cc(-c3ncc4c(N5CCC[C@@](C)(O)C5)nc(OCC5(CN6CC(N7CCC(N8CCN(c9ccc%10c(c9)CN([C@H]9CCC(=O)NC9=O)C%10=O)CC8)CC7)C6)CC5)nc4c3F)c12` had an IC50 of no more than 20 nM. The 50% degradation concentration (DC50) on GTPase KRas was no more than 1 nM.

As to `CCc1c(F)ccc2cc(O)cc(-c3ncc4c(N5CCC[C@]6(CCO6)C5)nc(OCC5(CN6CCC(CN7CCN(c8ccc9c(c8)CN([C@H]8CCC(=O)NC8=O)C9=O)CC7)CC6)CC5)nc4c3F)c12`, the IC50 in assay [1] came to 20 nM. Further, at GTPase KRas, the half-maximal degradation concentration (DC50) is 1 nM.

`CCc1c(F)ccc2cc(O)cc(-c3ncc4c(N5CCC[C@@](C)(O)C5)nc(OCC5(CN6CCC(C)(CN7CC8(CCN(c9ccc%10c(c9)CN([C@H]9CCC(=O)NC9=O)C%10=O)CC8)C7)CC6)CC5)nc4c3F)c12` had an IC50 in assay [1] of no more than 20 nM. At GTPase KRas, the 50% degradation concentration (DC50) is no more than 1 nM.
